“Also recorded” adds a separate entry of the source.
Legend:
Akt S473 = experiment: Western blotting for phosphorylated Akt (S473) in irradiated HPAEC; assay type: cell-based, human; details: 5 μM AG1024, 10 Gy X-rays, 3 hours post-irradiation
Description: (§1) Cell Culture and Reagents. Human pulmonary artery endothelial cells (HPAEC) were obtained from Cell Applications, Inc. (San Diego, Calif.) and cultured in EBM-2 basal medium containing supplements and growth factors as indicated in the manufacturer's protocol (Lonza, Walkersville, Md.). Cells were maintained at 37° C. in a humidified atmosphere containing 5% CO2. Subconfluent HPAEC at passages 4-8 were used for all experiments. The following chemical inhibitors and their final concentrations were used: AG1024 (5 μM, EMD Millipore, Billerica, Mass.), U0126 (10 μM), Ly294002 (20 μM), rapamycin (500 nM). […] 20 mM N-acetyl cysteine (NAC) was dissolved in distilled H2O.
(§2) Cell Irradiation: HPAEC were either irradiated or sham-irradiated at subconfluence (70-90%). Irradiations were conducted using RS2000 Biological Irradiator (Rad Source Technologies, Alpharetta, Ga.) with 0 3 mm Cu shielding at a dose rate of 2.4 Gy/min (160 kV, 25 mA) at room temperature.
(§3) Western blotting. […]
(§4) Protein concentrations from whole cell lysates were determined using Protein® BCA Protein Assay Kit (Thermo Scientific, Rockford, Ill.). […] Proteins were detected with horseradish peroxidase-linked secondary antibodies and SuperSignal® West Pico Chemiluminescent Substrate (Pierce, Rockford, Ill.). […]

[1] = test system: S6 ribosomal protein (Ser 235/236); experiment: Western blotting for phosphorylated S6 ribosomal protein (Ser 235/236) in irradiated HPAEC; assay type: cell-based, human; details: 5 μM AG1024, 10 Gy X-rays, 72 hours post-irradiation
Description: as §1, §2, §3, §4

caspase-3 = experiment: Western blotting for cleaved caspase-3 in irradiated HPAEC (radiation-induced apoptosis); assay type: cell-based, human; details: 6 hours post-irradiation
Description: as §1, §2, §3, §4

IGF-1R [2] = experiment: Western blotting for IGF-1R phosphorylation in H2O2-treated HPAEC; assay type: cell-based, human
Description: as §1, §3, §4
(§5) Radiation-induced reactive oxygen species (ROS) are required for early IGF-1R phosphorylation. […] We then determined whether this ROS-induced phosphorylation is ligand-dependent by treating the cells with H2O2 in the presence of AG1024 and blotting for phosphorylated IGF-1R. […]

p53 and p21/wafl = experiment: Western blotting for p53 and p21/wafl expression in irradiated HPAEC; assay type: cell-based, human; details: western blot
Description: as §1, §2, §3, §4

[3] = test system: Human pulmonary artery endothelial cells (HPAEC); experiment: Senescence-associated β-galactosidase (SA-β-gal) assay in X-ray irradiated HPAEC; assay type: cell-based; details: HPAEC pretreated 30 minutes with inhibitor (AG1024 5 μM, Ly294002 20 μM, rapamycin 500 nM, U0126 10 μM), 10 Gy X-rays, 4 days post-irradiation
Description: Cell Culture and Reagents. Human pulmonary artery endothelial cells (HPAEC) were obtained from Cell Applications, Inc. (San Diego, Calif.) and cultured in EBM-2 basal medium containing supplements and growth factors as indicated in the manufacturer's protocol (Lonza, Walkersville, Md.). Cells were maintained at 37° C. in a humidified atmosphere containing 5% CO2. Subconfluent HPAEC at passages 4-8 were used for all experiments. The following chemical inhibitors and their final concentrations were used: […] 20 mM N-acetyl cysteine (NAC) was dissolved in distilled H2O. Cell Irradiation: HPAEC were either irradiated or sham-irradiated at subconfluence (70-90%). Irradiations were conducted using RS2000 Biological Irradiator (Rad Source Technologies, Alpharetta, Ga.) with 0 3 mm Cu shielding at a dose rate of 2.4 Gy/min (160 kV, 25 mA) at room temperature. Senescence-associated fl-galactosidase (SA-β-gal) Assay. SA-β-gal assay was performed according to established protocols with minor modifications (Dimri, Lee et al. 1995; Bandyopadhyay, Gatza et al. 2005). To avoid density-dependent false positive expression of SA-β-gal, HPAEC were seeded at a density of 1.0-2.0×10^4 on 12-well or 6-well dishes and allowed to reach 50-70% confluence prior to treatment. At indicated time-points postirradiation, cells were washed twice in ice cold PBS, fixed in 2% formaldehyde/0.2% glutaraldehyde in PBS for 5 min at room temperature and washed again twice in ice-cold PBS. 1.5-2 ml of freshly prepared X-gal staining solution (1 mg/ml of 5-bromo-4-chloro-3-indolyl β-D-galactoside in 40 mM citric acid/sodium phosphate, pH 6.0 (made by mixing 36.85 parts 0.1 M citric acid solution with 63.15 parts 0.2 M sodium phosphate solution and then verifying pH to be 6.0, 0.1M citric acid was added to adjust pH when necessary), 5 mM potassium ferrocyanide, 5 mM potassium ferricyanide, 150 mM NaCl, 2 mM MgCl2) was then added to the culture dishes and the dishes were incubated for 12-20 h at 37° C. (without CO2). After incubation, cells were washed twice in ice-cold PBS and once in methanol and allowed to dry. Cells were examined for perinuclear blue staining indicative of SA-β-gal activity in at least 3 random fields.

[4] = test system: Human pulmonary artery endothelial cells (HPAEC); experiment: Cell morphology / cellular volume of X-ray irradiated HPAEC; assay type: cell-based; details: inhibitor pretreatment (AG1024 5 μM, Ly294002 20 μM, rapamycin 500 nM), 10 Gy X-rays, within 96 h
Description: as §1, §2
Senescence-associated fl-galactosidase (SA-β-gal) Assay. SA-β-gal assay was performed according to established protocols with minor modifications (Dimri, Lee et al. 1995; Bandyopadhyay, Gatza et al. 2005). To avoid density-dependent false positive expression of SA-β-gal, HPAEC were seeded at a density of 1.0-2.0×10^4 on 12-well or 6-well dishes and allowed to reach 50-70% confluence prior to treatment. […]

IGF-1R [5] = experiment: Western blotting for IGF-1R phosphorylation in X-ray irradiated HPAEC; assay type: cell-based, human; details: 20 mM NAC 1 hour, 10 Gy X-rays, 3 hours post-irradiation
Description: as §1
Cell Irradiation: HPAEC were either irradiated or sham-irradiated at subconfluence (70-90%). […]
as §4, §5

With `CC(C)(C)c1cc(C=C(C#N)C#N)cc(Br)c1O` [AG1024] as the compound, how does the “radiation-induced phosphorylation of Akt S473” value (Akt S473) read?
Its value is “had no effect”.

And the “phosphorylation of S6 ribosomal protein (Ser 235/236)” value [1]?
Its value is “significantly reduced”.

And the “levels of active (cleaved) caspase-3, radiation-induced apoptosis” value (caspase-3; 5 μM AG1024 30 minutes, 50 Gy X-rays)?
Its value is “does not regulate; also recorded: did not alter”.

What about the “ROS (H2O2)-induced IGF-1R phosphorylation in presence of inhibitor” value (IGF-1R [2]; 5 μM AG1024 30 minutes, then 10 μM H2O2 20 minutes) of the same compound?
The value was “not inhibited”.

And the “radiation-induced p53 and p21/wafl expression” value (p53 and p21/wafl; 5 μM AG1024, 10 Gy X-rays)?
The value was “suppression”.

What about the “radiation-induced accelerated senescence (SA-β-gal activity, percentage of SA-β-gal positive cells)” value [3] of the same compound?
The value was “Attenuation; also recorded: significantly reduced cellular senescence”.

And the “cellular morphology / change in cellular volume after radiation exposure” value [4]?
Its value is “prevented the change in cellular volume”.

With `OO` [H2O2] as the compound, how does the “IGF-1R phosphorylation induced by H2O2 alone” value (IGF-1R [2]; H2O2 1 μM and 10 μM, 20 minutes) read?
Its value is “sufficient to induce IGF-1R phosphorylation”.

What does the source list for `O=c1cc(N2CCOCC2)oc2c(-c3ccccc3)cccc12` [LY294002, 2-(4-Morpholinyl)-8-phenyl-4H-chromen-4-one]?
radiation-induced p21/wafl expression (p53 and p21/wafl; 500 nM rapamycin or 20 μM Ly294002, 10 Gy X-rays): attenuated; radiation-induced accelerated senescence (SA-β-gal activity, percentage of SA-β-gal positive cells) [3]: attenuated; radiation-induced accelerated senescence (SA-β-gal activity, percentage of SA-β-gal positive cells) ([3]; listed as Ly294002): Attenuation; cellular morphology / change in cellular volume after radiation exposure [4]: maintenance of normal cellular morphology

For `CC(=O)N[C@@H](CS)C(=O)O` [NAC, N-acetyl-L-cysteine], which “IR-induced IGF-1R phosphorylation” value (IGF-1R [5]) is on record?
The value was “attenuated”.

Which “radiation-induced accelerated senescence (SA-β-gal activity, percentage of SA-β-gal positive cells)” value [3] does the source give for `N#CC(=C(/N)Sc1ccccc1N)/C(C#N)=C(\N)Sc1ccccc1N` [U0126] here?
The value was “did not rescue cells from undergoing accelerated senescence”.

With “IGF-1: exogenous IGF-1 (IGF-1R activator), activating ligand of IGF-1R” as the compound, how does the “levels of active (cleaved) caspase-3, radiation-induced apoptosis” value (caspase-3; exogenous IGF-1 50 ng/ml 18 hours, X-rays (10 Gy in legend, 50 Gy in text)) read?
The value was “does not regulate; also recorded: did not alter”.
